From the supplement of paper PMC10307832

Key:
Test in all cases: relative viability (nuclei count vs DMSO), 5 days (fraction); higher = more cells survive
Salubrinal + Dasatinib = compound: O=C(/C=C/c1ccccc1)NC(NC(=S)Nc1cccc2cccnc12)C(Cl)(Cl)Cl [Salubrinal] + Cc1nc(Nc2ncc(C(=O)Nc3c(C)cccc3Cl)s2)cc(N2CCN(CCO)CC2)n1 [Dasatinib] (partner 0.075 µM)
Method in brief: (§1)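 After 5 days of treatment, lung cancer cells in 1536-well plates were fixed and stained in a single step (final 0.05% Triton X-100, 1% formaldehyde, 1 ug/ml Hoechst) and their nuclei counted on 4× images. Treatment had been applied by pin tool the day after seeding as one drug alone or as a fixed anchor-drug dose with five library-drug doses (not always all listed) in √10 steps. Relative viability is the nuclei count of treated wells divided by that of vehicle wells, and values are medians of duplicate plates.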

[1] = compound: Cc1ccc2nc(NCCN)c3ncc(C)n3c2c1 + CC(C)C[C@H](NC(=O)[C@H](Cc1ccccc1)NC(=O)c1cnccn1)B(O)O [Bortezomib] (partner 0.002 µM)
Method in brief: as §1

[2] = compound: Cc1ccc2nc(NCCN)c3ncc(C)n3c2c1 + Nc1ncn([C@H]2C[C@H](O)[C@@H](CO)O2)c(=O)n1 [Decitabine] (partner 2 µM)
Method in brief: as §1

Salubrinal + Luminespib = compound: O=C(/C=C/c1ccccc1)NC(NC(=S)Nc1cccc2cccnc12)C(Cl)(Cl)Cl [Salubrinal] + CCNC(=O)c1noc(-c2cc(C(C)C)c(O)cc2O)c1-c1ccc(CN2CCOCC2)cc1 [Luminespib] (partner 0.01 µM)
Method in brief: as §1

Cell Line | relative viability (Salubrinal + Dasatinib; first compound 0.08 µM) | relative viability (Salubrinal + Dasatinib; first compound 0.253 µM) | relative viability (Salubrinal + Dasatinib; first compound 0.8 µM) | relative viability (Salubrinal + Dasatinib; first compound 2.53 µM) | relative viability (Salubrinal + Dasatinib; first compound 8 µM) | relative viability ([1]; first compound 0.04 µM) | relative viability ([1]; first compound 0.1265 µM) | relative viability ([1]; first compound 0.4 µM) | relative viability ([1]; first compound 1.265 µM) | relative viability ([1]; first compound 4 µM) | relative viability ([2]; first compound 0.04 µM) | relative viability ([2]; first compound 0.1265 µM) | relative viability ([2]; first compound 0.4 µM) | relative viability ([2]; first compound 1.265 µM) | relative viability ([2]; first compound 4 µM) | relative viability (Salubrinal + Luminespib; first compound 0.08 µM) | relative viability (Salubrinal + Luminespib; first compound 0.253 µM) | relative viability (Salubrinal + Luminespib; first compound 0.8 µM) | relative viability (Salubrinal + Luminespib; first compound 2.53 µM) | relative viability (Salubrinal + Luminespib; first compound 8 µM)
201T | 0.56 | 0.596 | 0.669 | 0.602 | 0.573 | 1.11 | 1.2 | 1.09 | 1.11 | 1.11 | 0.838 | 0.818 | 0.862 | 0.901 | 0.839 | 1.06 | 1.05 | 1.11 | 1.09 | 1.07
A549 |  |  |  |  |  |  |  |  |  |  | 0.281 | 0.238 | 0.207 | 0.299 | 0.219 |  |  |  |  | 
A-427 | 0.724 | 0.643 | 0.747 | 0.68 | 0.654 | 1.05 | 1.15 | 0.929 | 0.978 | 0.962 | 0.557 | 0.561 | 0.547 | 0.58 | 0.539 | 1.04 | 0.696 | 1.07 | 0.8 | 1.2
ABC-1 | 0.54 | 0.508 | 0.633 | 0.634 | 0.554 | 0.402 | 0.223 | 0.337 | 0.282 | 0.263 | 1.14 | 1.32 | 1.12 | 0.87 | 1.3 | 0.559 |  | 0.8 | 0.473 | 0.728
BEN | 0.34 | 0.406 | 0.397 | 0.313 | 0.308 | 0.929 | 0.789 | 0.849 | 0.834 | 0.868 | 0.623 | 0.737 | 0.686 | 0.885 | 0.685 | 0.53 | 0.323 | 0.425 | 0.354 | 0.265
CAL-12T | 0.543 | 0.422 | 0.347 | 0.264 | 0.23 | 1.03 | 0.889 | 0.9 | 0.978 | 0.776 |  |  |  |  |  | 0.393 | 0.224 | 0.428 | 0.449 | 0.518
COR-L23 | 0.522 | 0.496 | 0.645 | 0.53 | 0.453 | 1.07 | 0.913 | 0.928 | 0.989 | 0.91 | 0.455 | 0.405 | 0.406 | 0.488 | 0.411 | 0.933 | 0.612 | 0.587 | 0.773 | 0.728
COR-L 105 | 0.365 | 0.325 | 0.345 | 0.317 | 0.319 | 0.89 | 0.867 | 0.723 | 0.853 | 0.737 | 0.758 | 0.738 | 0.722 | 0.673 | 0.632 | 0.7 | 0.699 | 0.761 | 0.812 | 0.738
Calu-6 |  |  |  |  |  | 1.08 | 0.891 | 1.03 | 0.912 | 0.603 |  |  |  |  |  |  |  |  |  | 
ChaGo-K-1 | 0.685 | 0.544 | 0.667 | 0.57 | 0.524 | 1.01 | 1 | 1.01 | 0.973 | 0.607 | 0.542 | 0.546 | 0.511 | 0.545 | 0.512 | 0.633 | 0.581 | 0.604 | 0.437 | 0.588
EBC-1 |  |  |  |  |  | 0.549 | 0.526 | 0.486 | 0.406 | 0.31 |  |  |  |  |  |  |  |  |  | 
EKVX | 0.635 | 0.538 | 0.552 | 0.469 | 0.426 | 0.998 | 0.994 | 0.996 | 1.17 | 0.951 | 0.335 | 0.35 | 0.345 | 0.32 | 0.28 | 0.902 | 0.969 | 0.839 | 0.86 | 0.891
EMC-BAC-2 | 0.305 | 0.334 | 0.359 | 0.411 | 0.335 | 1.12 | 1.12 | 0.957 | 1.13 | 1.05 | 0.973 | 1.01 | 0.989 | 1.06 | 0.966 | 1.26 | 0.835 | 1.28 | 1.16 | 1.11
EPLC-272H | 0.41 | 0.324 | 0.357 | 0.383 | 0.294 | 0.914 | 0.782 | 0.911 | 0.805 | 0.97 | 0.386 | 0.386 | 0.395 | 0.341 | 0.327 | 0.382 | 0.547 | 0.156 | 0.275 | 0.164
H3255 | 0.291 | 0.366 | 0.459 | 0.35 | 0.356 | 0.976 | 0.745 | 0.695 | 0.943 | 0.691 | 0.594 | 0.611 | 0.546 | 0.69 | 0.702 | 0.939 | 0.948 | 1.14 | 0.847 | 0.786
HARA | 0.341 | 0.29 | 0.282 | 0.265 | 0.263 | 1.14 | 1.11 | 1.13 | 1.06 | 1.1 | 0.492 | 0.758 | 0.651 | 0.419 | 0.546 | 0.848 | 0.688 | 1.08 | 0.487 | 0.496
